Assays:
Format in all cases: physicochemical
[1] = Antioxidant activity assessed as ONOO- scavenging activity
[2] = Antioxidant activity assessed as DPPH free radical scavenging activity
[3] = Antioxidant activity assessed as DPPH free radical scavenging activity using plasma treated compound
[4] = Antioxidant activity assessed as ONOO- scavenging activity using plasma treated compound

Row | SMILES | IC50 [1] [µM] | IC50 [2] [µM] | IC50 [3] [µM] | IC50 [4] [µM]
1 | CC(C)(S)[C@H](N)C(=O)O | 5.2 |  |  | 
2 | C[C@H]1O[C@@H](O[C@H]2[C@H](Oc3cc(O)c4c(c3)O[C@H](c3ccc(O)cc3)CC4=O)O[C@H](CO)[C@@H](O)[C@@H]2O)[C@H](O)[C@@H](O)[C@@H]1O | > 300 | > 300 |  | 
3 | COCO[C@H]1[C@H](O)[C@@H](O[C@@H]2O[C@H](C)[C@@H](O)[C@H](O)[C@H]2O)[C@H](Oc2cc(O)c3c(c2)O[C@@H](c2ccc(O)cc2)CC3=O)O[C@@H]1CO | 4.1 | 57.3 |  | 
4 | COCO[C@H]1[C@H](O)[C@@H](O)[C@H](O[C@H]2[C@H](Oc3cc(O)c4c(c3)O[C@H](c3ccc(O)cc3)CC4=O)O[C@H](CO)[C@@H](O)[C@@H]2O)O[C@@H]1C | 256 | 148 |  | 
5 | C[C@H]1O[C@@H](O[C@H]2[C@H](Oc3cc(O)c4c(c3)O[C@@H](c3ccc(O)cc3)CC4=O)O[C@H](CO)[C@@H](O)[C@@H]2O)[C@H](O)[C@@H](O)[C@@H]1O | > 300 | 93.8 |  | 
6 | Oc1cc(O)c2c(c1)O[C@H](c1ccc(O)c(O)c1)[C@@H](O)C2 [CIANIDANOL] |  | 23.9 |  | 
7 | C[C@@H]1O[C@@H](O[C@H]2[C@H](Oc3cc(O)c4c(c3)O[C@H](c3ccc(O)cc3)CC4=O)O[C@H](CO)[C@@H](O)[C@@H]2O)[C@H](O)[C@H](O)[C@H]1O [NARINGIN] |  |  | 110 | 15.6

Reference: ChEMBL document CHEMBL3397019, “Enhancement of antioxidant effects of naringin after atmospheric pressure dielectric barrier discharge plasma treatment” (Bioorg Med Chem Lett, 2015)
